# Patent US8138194B2, “Fused bicyclic pyrimidine compounds as aurora kinase inhibitors” (National Health Research Institutes, priority 2008, dated 2012)
# Several values for one entry are separate records, joined by “and”; a condition that tells them apart may be missing. Equal values may be shown once. Read-outs that look alike come from different tables or passages of the source.
# Columns and labels:
# [1] = biological target: T1, GST-tAurora A (123-401aa) fusion protein (Homo sapiens, UniProt O14965); assay: Aurora Kinase A luminescent kinase assay; format: biochemical; conditions: IC50 (concentration of a test compound at which activity of 50% of Aurora A is inhibited)
# T1 construct: GST-tAurora A (123-401aa) fusion protein; made in house; host or cells: Sf9 insect cells (baculovirus, pBacPAK8)
# T1 sequence (O14965 123-401): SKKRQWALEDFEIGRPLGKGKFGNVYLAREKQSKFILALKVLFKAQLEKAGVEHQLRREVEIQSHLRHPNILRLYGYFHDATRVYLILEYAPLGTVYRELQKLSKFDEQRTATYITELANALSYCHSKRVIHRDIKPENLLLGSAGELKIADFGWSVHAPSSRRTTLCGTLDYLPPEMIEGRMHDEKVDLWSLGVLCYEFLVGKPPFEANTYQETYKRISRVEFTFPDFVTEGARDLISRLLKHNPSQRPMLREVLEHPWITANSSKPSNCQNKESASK
# Experimental: The Aurora A catalytic domain with an N-terminal GST tag was constructed in pBacPAK8 plasmid and expressed in sf9 cells. […] To concentrate GST-tAurora A, buffer was replaced with Tris buffer (100 mM Tris (pH 7.5), 300 mM NaCl, 1 mM EDTA, 4 mM DTT) using Amicon ultra-15 (MWCO:30K, Millipore) to 2.4 mg/ml. After the addition of equal volume of glycerol and 0.04% Triton X-100, the proteins were stored aliquoted at −80° C.
# Briefly, a test compound, enzyme, substrate-tetra(LRRWSLG), DTT and ATP were dissolved in Aur buffer (50 mM Tris-HCl pH 7.4, 10 mM NaCl, 10 mM MgCl2, and 100 μg/ml BSA) individually before the assay. […] 5 μM ATP (5 μl), 1 mM DTT (5 μl) and 0.1 mM tetra(LRRWSLG) peptide substrate (5 μl) were added into the reactions of test compounds and GST-tAurora A. The reactions were incubated at 37° C. for 90 min. 50 μl of Kinase-Glo Plus Reagent (V3771, Promega) was added into the reactions, followed by the incubation at 25° C. for 20 min.
# [2] = test system: HCT-116 cells; assay: HCT-116 cell viability MTS assay; format: cell-based; conditions: Homo sapiens
# Experimental: HCT-116 cell viability was examined by the MTS assay (Promega, Madison, Wis., USA). 2000 HCT-116 cells in 100 μL McCoy's 5a medium were seeded in each well of a 96-well plate. After 96-h incubation with a test compound, the cells were incubated with 20 μL of a MTS/PMS mixture (MTS/PMS ratio: 20: 1) for 2 h at 37° C. in a humidified incubator with 5% CO2 to allow viable cells to convert the tetrazolium salt (MTS) into formazan. The amount/concentration of formazan, which indicates the number of live cells, was determined by measuring the absorbance at 490 nm using a PerkinElmer Victor2 plate reader (PerkinElmer, Shelton, Cont., USA).
# [3] = read-out: IC50 (concentration of a test compound which causes 50% of the cell death), HCT-116, 96-h incubation, MTS
# [4] = HCT-116, 96 h, read-out: IC50 (concentration of a test compound which causes 50% of the cell death)
# [5] = HCT-116, 96 h, read-out: IC50 (concentration of a test compound which causes 50% of the cell death), HCT-116, 96-h incubation, MTS
compound,measurement,setting,value
O=C(Nc1ccc(CCNc2ncnc3oc(-c4ccccc4)c(-c4ccccc4)c23)cc1)Nc1ccc(F)cc1F [Compound 92],IC50,[1],< 1 µM
same,IC50,[2]; [3],0.1 to 0.9 µM
O=C(Nc1ccc(Cl)cc1)Nc1ccc(CCNc2ncnc3oc(-c4ccccc4)c(-c4ccccc4)c23)cc1 [Compound 93],IC50,[1],< 1 µM
same,IC50,[2]; [3],0.1 to 0.9 µM
O=C(Nc1ccc(CCNc2ncnc3oc(-c4ccccc4)c(-c4ccccc4)c23)cc1)Nc1ccccc1F [Compound 96],IC50,[1],0.045 to 0.4 µM and < 1 µM
same,IC50,[2]; [3],0.1 to 0.9 µM
CN(C)Cc1ccc(NC(=O)Nc2ccc(CCNc3ncnc4oc(-c5ccccc5)c(-c5ccccc5)c34)cc2)cc1 [Compound 115],IC50,[1],< 1 µM
same,IC50,[2]; [3],0.1 to 0.9 µM
CN(C)Cc1ccccc1NC(=O)Nc1ccc(CCNc2ncnc3oc(-c4ccccc4)c(-c4ccccc4)c23)cc1 [Compound 123],IC50,[1],0.045 to 0.4 µM and < 1 µM
same,IC50,[2]; [3],0.1 to 0.9 µM
O=C(Nc1ccc(CCNc2ncnc3oc(-c4ccccc4)c(-c4ccccc4)c23)cc1)Nc1cccnc1 [Compound 147],IC50,[1],0.045 to 0.4 µM and < 1 µM
same,IC50,[2]; [3],0.1 to 0.9 µM
O=C(Nc1ccncc1)Nc1ccc(CCNc2ncnc3oc(-c4ccccc4)c(-c4ccccc4)c23)cc1 [Compound 148],IC50,[1],< 1 µM
same,IC50,[2]; [3],0.1 to 0.9 µM
O=C(Nc1ccccc1)Nc1ncc(CCNc2ncnc3oc(-c4ccccc4)c(-c4ccccc4)c23)s1 [Compound 171],IC50,[1],0.045 to 0.4 µM and < 1 µM
same,IC50,[2]; [3],0.1 to 0.9 µM
O=C(Nc1ccccc1)Nc1ccc(CCNc2ncnc3[nH]c(-c4ccccc4)c(-c4ccccc4)c23)cc1 [Compound 172],IC50,[1],0.045 to 0.4 µM and < 1 µM
same,IC50,[2]; [3],0.1 to 0.9 µM
O=C(Nc1ccccc1)Nc1ccc(CCNc2ncnc3cc(-c4ccccc4)oc23)cc1 [Compound 176],IC50,[1],< 1 µM
same,IC50,[2]; [3],0.1 to 0.9 µM
O=C(Nc1ccccc1)Nc1ccc(CCNc2ncnc3sc4c(c23)CCC4)cc1 [Compound 196],IC50,[1],0.045 to 0.4 µM and < 1 µM
same,IC50,[2]; [3],0.1 to 0.9 µM
O=C(Nc1ccccc1)Nc1ccc(CCNc2ncnc3oc(-c4ccccc4)c(C#CCO)c23)cc1 [Compound 202],IC50,[1],< 1 µM and 0.045 to 0.4 µM
same,IC50,[2]; [3],0.1 to 0.9 µM
COc1ccc(-c2cc3c(NCCc4ccc(NC(=O)Nc5ccccc5)cc4)ncnc3o2)cc1 [Compound 204],IC50,[1],< 1 µM and 0.045 to 0.4 µM
same,IC50,[2]; [3],0.1 to 0.9 µM
O=C(Nc1ccccc1)Nc1ccc(CCNc2ncnc3oc(-c4ccc(O)cc4)cc23)cc1 [Compound 205],IC50,[1],< 1 µM and 0.045 to 0.4 µM
same,IC50,[2]; [3],< 0.1 µM
CN(C)Cc1ccccc1NC(=O)Nc1ccc(CCNc2ncnc3oc(-c4ccccc4)cc23)cc1 [Compound 211],IC50,[1],< 1 µM and 0.045 to 0.4 µM
same,IC50,[2]; [3],0.1 to 0.9 µM
O=C(Nc1ccccc1)Nc1ccc(CCNc2ncnc3oc(Cl)c(-c4ccccc4)c23)cc1 [Compound 213],IC50,[1],< 1 µM
same,IC50,[2]; [3],0.1 to 0.9 µM
O=C(Nc1ccc(CCNc2ncnc3oc(-c4ccccc4)c(-c4ccccc4)c23)cc1)NC1CCC1 [Compound 214],IC50,[1],0.045 to 0.4 µM and < 1 µM
same,IC50,[2]; [3],0.1 to 0.9 µM
O=C(NCCCl)Nc1ccc(CCNc2ncnc3oc(-c4ccccc4)cc23)cc1 [Compound 215],IC50,[1],< 1 µM
same,IC50,[2]; [4],0.1 to 0.9 µM
O=C(NCCCl)Nc1ccc(CCNc2ncnc3oc(-c4ccccc4)c(Cl)c23)cc1 [Compound 217],IC50,[1],< 1 µM and 0.045 to 0.4 µM
same,IC50,[2]; [4],0.1 to 0.9 µM
O=C(NCCN1CCOCC1)Nc1ccc(CCNc2ncnc3oc(-c4ccccc4)c(Cl)c23)cc1 [Compound 218],IC50,[1],< 1 µM and 0.045 to 0.4 µM
same,IC50,[2]; [3],0.1 to 0.9 µM
O=C(Nc1ccccc1)Nc1ccc(CCNc2ncnc3oc(-c4ccccc4)c(-c4cccc([N+](=O)[O-])c4)c23)cc1 [Compound 219],IC50,[1],< 1 µM and 0.045 to 0.4 µM
same,IC50,[2]; [3],0.1 to 0.9 µM
Cc1oc2ncnc(NCCc3ccc(NC(=O)Nc4ccccc4)cc3)c2c1C [Compound 220],IC50,[1],< 1 µM and 0.045 to 0.4 µM
same,IC50,[2]; [3],0.1 to 0.9 µM
COc1cccc(-c2cc3c(NCCc4ccc(NC(=O)Nc5ccccc5)cc4)ncnc3o2)c1 [Compound 221],IC50,[1],< 1 µM and 0.045 to 0.4 µM
same,IC50,[2]; [3],0.1 to 0.9 µM
CCCCNC(=O)Nc1ccc(CCNc2ncnc3oc(-c4ccccc4)c(-c4ccccc4)c23)cc1 [Compound 222],IC50,[1],< 1 µM and 0.045 to 0.4 µM
same,IC50,[2]; [3],0.1 to 0.9 µM
O=C(Nc1ccccc1)Nc1ccc(CCNc2ncnc3oc(-c4cccc(O)c4)cc23)cc1 [Compound 223],IC50,[1],< 1 µM and 0.045 to 0.4 µM
same,IC50,[2]; [3],0.1 to 0.9 µM
CN(C)CCOc1cccc(-c2cc3c(NCCc4ccc(NC(=O)Nc5ccccc5)cc4)ncnc3o2)c1 [Compound 224],IC50,[1],< 1 µM and 0.045 to 0.4 µM
same,IC50,[2]; [5],0.1 to 0.9 µM
O=C(Nc1ccccc1)Nc1ccc(CCNc2ncnc3oc(-c4ccccc4)c(CO)c23)cc1 [Compound 225],IC50,[1],< 1 µM and 0.045 to 0.4 µM
same,IC50,[2]; [3],0.1 to 0.9 µM
Cc1c(-c2ccccc2)oc2ncnc(NCCc3ccc(NC(=O)Nc4ccccc4)cc3)c12 [Compound 226],IC50,[1],< 1 µM and 0.045 to 0.4 µM
same,IC50,[2]; [3],0.1 to 0.9 µM
O=C(Nc1ccccc1)Nc1ccc(CCNc2ncnc3oc(-c4ccc(OCCN5CCOCC5)cc4)cc23)cc1 [Compound 230],IC50,[1],0.045 to 0.4 µM and < 1 µM
same,IC50,[2]; [3],0.1 to 0.9 µM
O=C(Nc1ccc(CCNc2ncnc3oc(-c4ccccc4)c(Cl)c23)cc1)Nc1cccnc1 [Compound 232],IC50,[1],0.045 to 0.4 µM and < 1 µM
same,IC50,[2]; [3],0.1 to 0.9 µM
O=C(Nc1ccccc1)Nc1ccc(CCNc2ncnc3oc(-c4ccc(OCCCl)cc4)cc23)cc1 [Compound 235],IC50,[1],< 1 µM and 0.045 to 0.4 µM
same,IC50,[2]; [3],0.1 to 0.9 µM
O=C(Nc1ccccc1)Nc1ccc(CCNc2ncnc3oc(-c4ccc(OCCN5CCC(CO)CC5)cc4)cc23)cc1 [Compound 236],IC50,[1],< 1 µM and 0.045 to 0.4 µM
same,IC50,[2]; [3],0.1 to 0.9 µM
O=C(Nc1ccccc1)Nc1ccc(CCNc2ncnc3oc(-c4ccc(OCCCN5CCC(CO)CC5)cc4)cc23)cc1 [Compound 237],IC50,[1],< 1 µM and 0.045 to 0.4 µM
same,IC50,[2]; [3],0.1 to 0.9 µM
O=C(Nc1ccccc1)Nc1ccc(CCNc2ncnc3oc(-c4ccc(OCCN5CCC(O)CC5)cc4)cc23)cc1 [Compound 239],IC50,[1],< 1 µM and 0.045 to 0.4 µM
same,IC50,[2]; [3],0.1 to 0.9 µM
O=C(Nc1ccccc1)Nc1ccc(CCNc2ncnc3oc(-c4ccc(OCCCN5CCC(O)CC5)cc4)cc23)cc1 [Compound 240],IC50,[1],< 1 µM and 0.045 to 0.4 µM
same,IC50,[2]; [3],0.1 to 0.9 µM
O=C(Nc1ccccc1)Nc1ccc(CCNc2ncnc3oc(-c4ccc(OCCCN5CCC[C@H]5CO)cc4)cc23)cc1 [Compound 241],IC50,[1],< 1 µM and 0.045 to 0.4 µM
same,IC50,[2]; [3],0.1 to 0.9 µM
COc1ccc(-c2oc3ncnc(NCCc4ccc(NC(=O)Nc5ccccc5)cc4)c3c2Cl)cc1 [Compound 244],IC50,[1],< 1 µM and 0.045 to 0.4 µM
same,IC50,[2]; [3],0.1 to 0.9 µM
COc1ccc(-c2cc3c(NCCc4ccc(NC(=O)Nc5ccccc5CN(C)C)cc4)ncnc3o2)cc1 [Compound 245],IC50,[1],< 1 µM
same,IC50,[2]; [3],0.1 to 0.9 µM
CN(C)CCCOc1ccc(-c2cc3c(NCCc4ccc(NC(=O)Nc5ccccc5)cc4)ncnc3o2)cc1 [Compound 247],IC50,[1],0.045 to 0.4 µM and < 1 µM
same,IC50,[2]; [5],0.1 to 0.9 µM
O=C(Nc1ccccc1)Nc1ccc(CCNc2ncnc3sc4c(c23)CCCCC4)cc1 [Compound 248],IC50,[1],< 1 µM
same,IC50,[2]; [3],0.1 to 0.9 µM
O=C(Nc1ccccc1)Nc1ccc(CCNc2ncnc3oc(-c4ccccc4)c(C#CCCO)c23)cc1 [Compound 249],IC50,[1],0.045 to 0.4 µM and < 1 µM
same,IC50,[2]; [3],0.1 to 0.9 µM
O=C(Nc1ccccc1)Nc1ccc(CCNc2ncnc3oc(-c4ccccc4)c(-c4ccc(CO)o4)c23)cc1 [Compound 250],IC50,[1],0.045 to 0.4 µM and < 1 µM
same,IC50,[2]; [3],0.1 to 0.9 µM
